Results reported in patent US5109011A, “P-acylaminophenoxycarbamates and derivatives” (Hoechst-Roussel Pharmaceuticals Incorporated, priority 1990, dated 1992).

What follows are compounds tested on phenyl-para-quinone induced writhing (assay: phenyl-para-quinone writhing assay in mice (analgesia)). Conditions: Mus musculus, oral, read-out: Analgesic Activity ED50 (oral dose at which 50% of the phenyl-para-quinone induced writhing is inhibited).
Assay type: in vivo
Description: Exptl. Biol. Med., 95,729 (1957)]. Presented in Table I is the analgesic effect of some of the compounds of the invention expressed as the oral dose at which 50% of the phenyl-para-quinone induced writhing is inhibited in the animals, i.e., the ED50 value.
In the case of `CC(=O)Nc1ccc(OC(=O)N(C)OC(C)=O)cc1` [4-(Acetylamino)phenyl-N-(acetyloxy)-N-methyl carbamate], the ED50 is reported as 42.7 mg/kg. Compound `CC(=O)Nc1ccc(OC(=O)N(C)O)cc1` [4-(Acetylamino)phenyl-N-hydroxy-N-methyl carbamate] has an ED50 of 32.3 mg/kg. Compound `CC(=O)Nc1ccc(OC(=O)N(C)OCc2ccccc2)cc1` [4-(acetylamino)phenyl-N-benzyloxy-N-methyl carbamate] has an ED50 of 28.5 mg/kg. Work on `CC(=O)Nc1ccc(O)cc1` [Acetaminophen, reference compound] yielded an ED50 of 33.8 mg/kg.
